Measurements published in US6545033B1, “Fused 1-(2,6-dichloro-4-trifluoromethylphenyl)-pyrazoles, the synthesis thereof and the use thereof as pesticides” (3-Dimensional Pharmaceuticals, Inc., priority 1999, dated 2003).

Assays:
Housefly GABA receptors = molecular target: T1, Housefly GABA receptors (Musca domestica, UniProt Q75NA5); experiment: In vitro assay of binding to housefly GABA receptors (3H-EBOB displacement, housefly neuronal membranes); conditions: housefly neuronal membranes
T1 sequence (Q75NA5 30-576): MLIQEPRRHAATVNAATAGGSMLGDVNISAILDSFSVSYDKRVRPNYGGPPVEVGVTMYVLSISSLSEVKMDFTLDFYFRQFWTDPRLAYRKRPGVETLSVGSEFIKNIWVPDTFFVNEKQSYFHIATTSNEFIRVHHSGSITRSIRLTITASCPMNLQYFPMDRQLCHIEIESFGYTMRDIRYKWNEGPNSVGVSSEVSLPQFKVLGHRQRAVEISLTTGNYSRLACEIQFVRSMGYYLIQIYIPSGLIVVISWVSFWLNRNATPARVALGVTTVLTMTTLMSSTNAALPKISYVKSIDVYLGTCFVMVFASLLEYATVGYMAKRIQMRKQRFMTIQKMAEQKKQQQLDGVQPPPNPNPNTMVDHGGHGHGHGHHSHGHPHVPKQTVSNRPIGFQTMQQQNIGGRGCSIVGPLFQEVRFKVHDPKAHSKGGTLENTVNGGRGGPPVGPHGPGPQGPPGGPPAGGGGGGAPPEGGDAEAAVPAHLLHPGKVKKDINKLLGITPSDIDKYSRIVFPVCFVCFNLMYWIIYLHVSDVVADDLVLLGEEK
Description: Newly emerged houseflies (Musca domestica, available from Rincon-Vitova Insectaries, Inc., Ventura, Calif.) were sedated with carbon dioxide gas, collected in 50 mL polypropylene conical tubes, and immediately frozen by submersion in liquid nitrogen. Unless specified, all of the following work was performed at 0-4° C. After removal from liquid nitrogen, the tubes of frozen houseflies were shaken vigorously by hand to decapitate the houseflies. […] Contaminating wings were removed by holding a vacuum nozzle approximately 4 cm above the heads, and contaminating legs were separated from the heads by passage through a #15 mesh screen. All remaining debris were removed from the pool of heads using forceps. The purified heads were collected in 50 mL polypropylene conical tubes and stored in liquid nitrogen until processed further.
About 13 g of purified housefly heads were suspended in about 65 mL of 10% sucrose buffer (10% sucrose (w/w) in 10 mM Tris, pH 7.5). The heads were homogenized for about 1 minute, using a Tissumizer™ homogenizer equipped with a SDT-100EN probe (available from Tekmar-Dohrmann, Cincinnati, Ohio) running at 70% of its maximum speed. The extract was further homogenized by about 5 passes through a 40 mL Dounce tissue grinder. The extract was then centrifuged at about 500×g for about 5 minutes to pellet large debris. The supernatant was collected; the pellet was washed with an additional 65 mL of 10% sucrose buffer and centrifuged at 500×g for about 5 minutes. The second supernatant was collected and combined with the first supernatant, and the pool was filtered through a 100μ CellMicroSieve™ mesh to remove residual debris (available from BioDesign of New York, Carmel, N.Y.).
Neuronal membranes containing active GABA receptors were collected via sucrose density centrifugation by the following method. About 8 mL of 35% sucrose buffer (35% sucrose (w/w) in 10 mM Tris, pH 7.5), were dispensed into each of six 38 mL ultracentrifuge tubes. These layers were overlaid with about 8 mL of 20% sucrose buffer (20% sucrose (w/w) in 10 mM Tris, pH 7.5), and finally overlaid with about 20 mL of filtered extract supernatant. The tubes were centrifuged at about 120,000×g for about 100 min at 4° C. After centrifugation, the 10% sucrose layer and most of the 20% sucrose layer were removed by aspiration. The membranes at the interface of the 20% sucrose and 35% sucrose layers were collected, pooled, diluted with 10% sucrose buffer, and centrifuged at about 120,000×g for about 40 min at 4° C. After centrifugation, the supernatant was discarded, and the pellets resuspended in about 6.5 mL of assay buffer (10 mM phosphate, 300 mM NaCl, pH 7.5) using a 10 mL Potter-Elvehjem tissue grinder with a Teflon® pestle. Protein concentration was determined by the Bio-Rad Protein Assay (available from Bio-Rad Laboratories, Hercules, Calif.) using bovine serum albumin as a standard. The membranes were aliquoted and stored in liquid nitrogen for up to 2 months before use.
Housefly neuronal membranes were prepared as described above from housefly heads. Test compounds were dissolved in dimethylsulfoxide (DMSO) at concentrations ranging from about 2 nM to about 100 mM. About 1 μL of a dissolved test compound was dispensed into a well of a 96-well polystyrene plate. About 100 μL of ice cold assay buffer (10 mM phosphate, 300 mM NaCl, pH 7.5) containing 5.2 nM 4′-Ethynyl-4-n-[2,3-^3H2]propylbicycloorthobenzoate (^3H-EBOB, 38 Ci/mmol, available from NEN Life Science Products, Boston, Mass.) was added to the well, followed by about 100 μL of ice cold assay buffer containing about 0.5-1.0 mg/mL housefly neuronal membranes. Control wells were prepared the same way except that the housefly neuronal membranes were omitted from the “negative” wells, and the test compounds were omitted from the “positive” wells. […]

[1] = system: houseflies (Musca domestica); experiment: In vivo housefly contact assay; conditions: contact in coated glass test tube, about 24 hours; mM = concentration of the DMSO solution, about 1 μL applied
Description: This example describes an in vivo assay to screen compounds for their ability to kill houseflies via contact. Newly emerged houseflies (Musca domestica, available from Rincon-Vitova Insectaries, Inc., Ventura, Calif.) were sedated with carbon dioxide gas, collected in 50 mL polypropylene conical tubes containing filter paper saturated with 10% (w/w) sucrose in water, and allowed to feed at room temperature for about 2-4 hours. Test compounds were dissolved as in dimethylsulfoxide (DMSO) at concentrations ranging from about 0.05 mM to about 100 mM. About 1 μL of dissolved test compound and about 100 μL of isopropanol were dispensed into the bottom of a 9 mL screw-top glass test tube. Positive control test tubes were prepared in the same manner except that no test compounds were dissolved in the DMSO. Each test tube was rolled to coat the sides with the chemical solution, and allowed to air dry 24-48 hours. About 20 houseflies were sedated by refrigeration at 0-4° C. and transferred to each test tube. Each test tube was sealed with organdy cloth secured by an open top screw cap and laid horizontally in the dark. After about 24 hours, the healthy, moribund, and dead houseflies in each test tube were counted. The percentage of dead houseflies in each test tube was then calculated using the formula M=100(D−(FC/100))/(F−(FC/100)), in which M is the percentage of dead houseflies due to the addition of the test compound, D is the number of dead houseflies in the test tube, F is the total number of houseflies in the test tube, and C is the percentage of dead houseflies in the control test tubes.

[2] = system: cat fleas (Ctenocephalides felis), CO Fleas; experiment: In vivo cat flea contact assay, CO fleas; conditions: Ctenocephalides felis, topical; contact with treated filter disk in vial, about 24-30 hours; mM = concentration of the DMSO solution, about 1 μL applied; read-out: LD50 (mM), CO Fleas
Description: (§1) This example describes an in vivo assay to screen compounds for their ability to kill cat fleas via contact.
(§2) Test compounds were dissolved in dimethylsulfoxide (DMSO) at concentrations ranging from about 0.05 mM to about 100 mM. About 1 μL of dissolved test compound was dispensed onto a 6 mm (diameter) GF/C filter disk (filter material available from Whatman Inc., Clifton, N.J.) in the bottom of a 4 mL screw-top glass vial and allowed to air dry 24-48 hours. Positive control vials were prepared in the same manner except that no test compounds were dissolved in the DMSO. About 20 newly emerged cat fleas (Ctenocephalides felis) were sedated by refrigeration at 0-4° C. and transferred to each vial. Each vial was sealed with a thin, perforated Teflon™ septum secured by an open top screw cap and held vertically in the dark. After about 24-30 hours, the healthy, moribund, and dead cat fleas in each vial were counted. The percentage of dead cat fleas in each vial was then calculated using the formula M=100(D−(FC/100))/(F−(FC/100)), in which M is the percentage of dead cat fleas due to the addition of the test compound, D is the number of dead cat fleas in the test vial, F is the total number of cat fleas in the test vial, and C is the percentage of dead cat fleas in the control vials.

[3] = system: cat fleas (Ctenocephalides felis), NC Fleas; experiment: In vivo cat flea contact assay, NC fleas; conditions: contact with treated filter disk in vial, about 24-30 hours; mM = concentration of the DMSO solution, about 1 μL applied
Description: as §1, §2

FC(F)(F)c1cc(Cl)c(-n2cc3c(n2)C2CCC3C2)c(Cl)c1 (stereo not shown) [Compound 35, 3,4-Diaza-4-[2,6-dichloro-4-(trifluoromethyl)phenyl]tricyclo-[5.2.1.0^2.6]deca-2,5-diene]
Compounds with the most activity (housefly 3H-EBOB binding) (Housefly GABA receptors): most activity
LD50 (mM), Flies [1]: 48 mM
LC50 [2]: 17 mM
LD50 (mM), NC Fleas [3]: 12 mM
